{
  "source": "ChEMBL document CHEMBL3860068",
  "about": "“Class II Phosphoinositide 3-Kinases as Novel Drug Targets” (J Med Chem, 2017)",
  "key": {"[1]": {"test": "Inhibition of class 1 PI3K (unknown origin)", "set-up": "species or system Homo sapiens"}, "[2]": {"test": "Inhibition of class 4 PI3K (unknown origin)", "set-up": "species or system Homo sapiens"}, "[3]": {"biological_target": "T1, Phosphatidylinositol 3-kinase catalytic subunit type 3 (Homo sapiens, UniProt Q8NEB9)", "T1 sequence (Q8NEB9 whole entry)": "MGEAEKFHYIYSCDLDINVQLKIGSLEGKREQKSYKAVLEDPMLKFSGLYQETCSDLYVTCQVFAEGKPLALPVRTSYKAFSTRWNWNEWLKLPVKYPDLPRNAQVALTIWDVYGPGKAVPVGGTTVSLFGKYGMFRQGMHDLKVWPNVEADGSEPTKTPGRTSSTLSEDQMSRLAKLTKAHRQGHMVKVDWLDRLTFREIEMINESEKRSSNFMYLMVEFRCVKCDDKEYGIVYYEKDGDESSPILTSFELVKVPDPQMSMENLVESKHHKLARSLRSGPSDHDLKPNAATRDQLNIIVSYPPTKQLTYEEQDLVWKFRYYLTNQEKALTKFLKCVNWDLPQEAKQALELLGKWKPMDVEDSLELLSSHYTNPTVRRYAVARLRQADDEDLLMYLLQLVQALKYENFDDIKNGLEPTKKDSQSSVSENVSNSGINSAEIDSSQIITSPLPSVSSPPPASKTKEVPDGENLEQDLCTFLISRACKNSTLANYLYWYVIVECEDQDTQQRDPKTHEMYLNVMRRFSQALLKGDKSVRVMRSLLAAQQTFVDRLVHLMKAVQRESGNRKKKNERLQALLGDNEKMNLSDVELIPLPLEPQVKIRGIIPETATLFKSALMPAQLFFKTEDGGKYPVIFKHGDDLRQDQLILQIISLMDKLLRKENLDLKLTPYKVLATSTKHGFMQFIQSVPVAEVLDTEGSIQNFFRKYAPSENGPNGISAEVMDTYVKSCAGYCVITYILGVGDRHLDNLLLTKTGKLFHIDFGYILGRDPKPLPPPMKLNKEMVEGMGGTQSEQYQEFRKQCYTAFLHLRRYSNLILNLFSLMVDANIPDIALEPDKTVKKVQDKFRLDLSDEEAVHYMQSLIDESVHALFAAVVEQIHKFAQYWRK", "test": "Inhibition of full length human recombinant VPS34 (unknown origin) using phosphatidylinositol and gamma-32P-ATP incubated for 20 mins by TLC assay or high-throughput membrane capture assay"}, "[4]": {"biological_target": "T2, Phosphatidylinositol 4-phosphate 3-kinase C2 domain-containing subunit alpha (Homo sapiens, UniProt O00443)", "T2 sequence (O00443 whole entry, the tested form may be a part)": "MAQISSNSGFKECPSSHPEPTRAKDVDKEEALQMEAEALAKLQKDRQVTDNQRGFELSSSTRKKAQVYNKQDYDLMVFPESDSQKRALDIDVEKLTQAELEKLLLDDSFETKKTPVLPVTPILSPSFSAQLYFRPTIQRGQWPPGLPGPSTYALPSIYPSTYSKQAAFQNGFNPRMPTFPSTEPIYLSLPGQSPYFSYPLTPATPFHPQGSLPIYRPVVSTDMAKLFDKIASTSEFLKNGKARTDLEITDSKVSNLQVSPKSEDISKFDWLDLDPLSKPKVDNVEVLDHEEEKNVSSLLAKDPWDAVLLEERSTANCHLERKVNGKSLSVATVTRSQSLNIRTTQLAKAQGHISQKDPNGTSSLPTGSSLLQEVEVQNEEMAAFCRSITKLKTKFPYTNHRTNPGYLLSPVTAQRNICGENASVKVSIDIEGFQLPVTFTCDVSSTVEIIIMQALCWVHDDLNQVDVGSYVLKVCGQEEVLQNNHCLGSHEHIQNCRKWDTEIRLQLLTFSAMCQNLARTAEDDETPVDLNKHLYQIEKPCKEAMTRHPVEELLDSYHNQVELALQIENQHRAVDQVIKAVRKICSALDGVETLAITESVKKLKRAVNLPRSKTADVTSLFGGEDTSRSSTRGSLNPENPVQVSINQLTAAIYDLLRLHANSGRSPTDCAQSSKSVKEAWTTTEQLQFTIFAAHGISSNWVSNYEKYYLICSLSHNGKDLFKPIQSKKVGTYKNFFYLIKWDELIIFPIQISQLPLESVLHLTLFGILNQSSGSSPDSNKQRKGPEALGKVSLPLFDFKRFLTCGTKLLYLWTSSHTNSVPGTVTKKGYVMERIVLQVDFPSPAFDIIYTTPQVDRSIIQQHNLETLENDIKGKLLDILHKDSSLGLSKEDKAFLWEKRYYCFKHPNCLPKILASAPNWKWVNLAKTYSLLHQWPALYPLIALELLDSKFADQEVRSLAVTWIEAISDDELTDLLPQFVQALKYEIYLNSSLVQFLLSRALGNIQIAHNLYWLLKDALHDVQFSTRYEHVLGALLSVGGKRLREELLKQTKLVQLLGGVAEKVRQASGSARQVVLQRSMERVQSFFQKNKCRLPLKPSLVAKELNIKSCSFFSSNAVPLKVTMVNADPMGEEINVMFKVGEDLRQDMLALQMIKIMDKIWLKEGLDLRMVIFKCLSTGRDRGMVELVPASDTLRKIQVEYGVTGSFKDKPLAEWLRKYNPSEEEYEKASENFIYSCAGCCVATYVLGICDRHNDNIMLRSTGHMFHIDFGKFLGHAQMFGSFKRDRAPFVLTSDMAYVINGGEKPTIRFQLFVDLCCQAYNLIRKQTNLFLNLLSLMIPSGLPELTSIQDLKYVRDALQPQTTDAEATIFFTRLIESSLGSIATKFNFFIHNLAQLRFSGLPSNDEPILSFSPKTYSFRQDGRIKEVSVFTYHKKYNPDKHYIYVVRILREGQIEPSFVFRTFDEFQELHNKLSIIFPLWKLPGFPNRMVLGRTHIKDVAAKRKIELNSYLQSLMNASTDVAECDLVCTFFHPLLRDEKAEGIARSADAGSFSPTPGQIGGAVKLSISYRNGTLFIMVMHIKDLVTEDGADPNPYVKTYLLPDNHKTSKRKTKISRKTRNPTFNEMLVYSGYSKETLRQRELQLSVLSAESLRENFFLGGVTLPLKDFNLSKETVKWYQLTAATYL", "test": "Inhibition of PI3KC2alpha (unknown origin)"}, "[5]": {"biological_target": "T3, Phosphatidylinositol 4-phosphate 3-kinase C2 domain-containing subunit beta (Homo sapiens, UniProt O00750)", "T3 sequence (O00750 whole entry, the tested form may be a part)": "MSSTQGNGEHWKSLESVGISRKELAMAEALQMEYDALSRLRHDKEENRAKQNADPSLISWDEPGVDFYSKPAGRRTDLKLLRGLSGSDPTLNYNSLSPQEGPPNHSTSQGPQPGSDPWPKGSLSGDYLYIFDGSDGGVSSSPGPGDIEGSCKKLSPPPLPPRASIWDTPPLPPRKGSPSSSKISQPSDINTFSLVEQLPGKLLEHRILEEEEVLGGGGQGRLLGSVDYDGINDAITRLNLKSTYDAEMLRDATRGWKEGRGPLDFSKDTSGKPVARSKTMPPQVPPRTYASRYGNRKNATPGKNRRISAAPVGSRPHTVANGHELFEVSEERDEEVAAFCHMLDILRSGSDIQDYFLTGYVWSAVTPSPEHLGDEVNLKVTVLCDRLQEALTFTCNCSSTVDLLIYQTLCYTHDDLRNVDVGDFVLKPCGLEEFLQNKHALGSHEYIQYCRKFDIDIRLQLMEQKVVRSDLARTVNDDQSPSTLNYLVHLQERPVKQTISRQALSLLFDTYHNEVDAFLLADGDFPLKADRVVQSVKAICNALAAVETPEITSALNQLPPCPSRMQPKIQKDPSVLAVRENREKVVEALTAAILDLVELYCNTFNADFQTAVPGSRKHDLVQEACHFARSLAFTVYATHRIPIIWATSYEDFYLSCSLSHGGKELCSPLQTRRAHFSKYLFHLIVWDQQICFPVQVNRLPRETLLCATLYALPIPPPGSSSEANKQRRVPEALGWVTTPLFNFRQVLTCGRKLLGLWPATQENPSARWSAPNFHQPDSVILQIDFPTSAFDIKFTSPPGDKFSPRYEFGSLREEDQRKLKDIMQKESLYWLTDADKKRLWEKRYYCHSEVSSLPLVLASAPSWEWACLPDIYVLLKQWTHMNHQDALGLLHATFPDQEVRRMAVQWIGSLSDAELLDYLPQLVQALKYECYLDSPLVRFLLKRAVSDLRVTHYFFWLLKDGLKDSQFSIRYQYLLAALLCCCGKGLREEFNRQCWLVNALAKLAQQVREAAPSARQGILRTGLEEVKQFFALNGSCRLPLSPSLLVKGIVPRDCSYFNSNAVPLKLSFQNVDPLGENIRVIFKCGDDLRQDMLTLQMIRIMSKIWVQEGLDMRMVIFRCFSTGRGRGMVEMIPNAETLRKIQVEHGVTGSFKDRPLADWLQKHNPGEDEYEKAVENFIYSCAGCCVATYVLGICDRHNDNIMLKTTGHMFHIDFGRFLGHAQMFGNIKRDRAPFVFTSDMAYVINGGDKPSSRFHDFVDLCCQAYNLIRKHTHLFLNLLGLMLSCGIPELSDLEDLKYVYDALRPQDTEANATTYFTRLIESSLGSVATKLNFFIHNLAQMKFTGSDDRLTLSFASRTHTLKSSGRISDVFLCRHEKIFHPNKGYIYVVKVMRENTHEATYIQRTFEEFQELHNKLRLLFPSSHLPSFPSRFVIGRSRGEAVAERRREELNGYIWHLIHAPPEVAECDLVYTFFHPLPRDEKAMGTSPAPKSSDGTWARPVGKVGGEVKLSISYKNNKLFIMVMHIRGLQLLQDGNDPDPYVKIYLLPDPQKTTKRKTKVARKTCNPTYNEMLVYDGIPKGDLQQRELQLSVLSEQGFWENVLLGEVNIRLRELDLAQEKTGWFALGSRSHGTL", "test": "Inhibition of PI3KC2beta (unknown origin)"}, "[6]": {"biological_target": "T4, Phosphatidylinositol 3-kinase C2 domain-containing subunit gamma (Homo sapiens, UniProt O75747)", "T4 sequence (O75747 whole entry)": "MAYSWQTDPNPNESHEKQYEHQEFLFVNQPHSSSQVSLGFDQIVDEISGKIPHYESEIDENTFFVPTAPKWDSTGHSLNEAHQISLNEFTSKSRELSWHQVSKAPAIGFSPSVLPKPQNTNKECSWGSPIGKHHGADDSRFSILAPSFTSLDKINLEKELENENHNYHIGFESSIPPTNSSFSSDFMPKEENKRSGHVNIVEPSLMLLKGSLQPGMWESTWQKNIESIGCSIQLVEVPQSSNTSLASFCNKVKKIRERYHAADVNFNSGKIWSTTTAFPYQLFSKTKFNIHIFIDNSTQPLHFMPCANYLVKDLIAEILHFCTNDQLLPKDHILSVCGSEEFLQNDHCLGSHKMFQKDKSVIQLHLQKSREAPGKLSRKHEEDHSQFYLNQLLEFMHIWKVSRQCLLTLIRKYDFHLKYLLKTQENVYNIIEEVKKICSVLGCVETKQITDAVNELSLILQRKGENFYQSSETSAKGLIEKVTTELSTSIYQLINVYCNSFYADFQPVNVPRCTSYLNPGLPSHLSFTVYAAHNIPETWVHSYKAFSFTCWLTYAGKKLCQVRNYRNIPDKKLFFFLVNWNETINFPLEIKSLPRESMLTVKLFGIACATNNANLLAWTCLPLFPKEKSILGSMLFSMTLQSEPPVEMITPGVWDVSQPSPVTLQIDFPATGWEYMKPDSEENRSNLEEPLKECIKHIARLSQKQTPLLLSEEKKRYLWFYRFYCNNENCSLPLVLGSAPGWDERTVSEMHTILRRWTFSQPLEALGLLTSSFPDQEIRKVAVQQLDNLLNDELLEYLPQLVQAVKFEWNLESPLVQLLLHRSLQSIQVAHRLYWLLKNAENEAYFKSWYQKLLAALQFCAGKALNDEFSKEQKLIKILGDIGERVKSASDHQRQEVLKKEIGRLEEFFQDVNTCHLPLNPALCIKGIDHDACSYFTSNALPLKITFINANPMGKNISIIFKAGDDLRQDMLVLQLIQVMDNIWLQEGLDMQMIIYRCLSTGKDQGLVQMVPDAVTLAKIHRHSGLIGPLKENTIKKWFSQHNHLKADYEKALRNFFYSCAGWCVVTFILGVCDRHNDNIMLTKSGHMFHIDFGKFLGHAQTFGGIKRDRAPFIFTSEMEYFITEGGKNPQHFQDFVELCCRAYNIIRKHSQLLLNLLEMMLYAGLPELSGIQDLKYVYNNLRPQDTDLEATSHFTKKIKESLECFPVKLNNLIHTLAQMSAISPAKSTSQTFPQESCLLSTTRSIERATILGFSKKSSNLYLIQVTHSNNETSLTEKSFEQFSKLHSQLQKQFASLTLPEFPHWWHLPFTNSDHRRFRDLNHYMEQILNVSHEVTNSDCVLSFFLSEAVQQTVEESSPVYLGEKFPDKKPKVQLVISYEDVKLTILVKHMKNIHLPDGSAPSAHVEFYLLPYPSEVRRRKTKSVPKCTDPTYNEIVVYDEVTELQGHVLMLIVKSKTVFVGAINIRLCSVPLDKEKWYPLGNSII", "test": "Inhibition of PI3KC2gamma (unknown origin)"}, "[7]": {"biological_target": "Phosphatidylinositol 4,5-bisphosphate 3-kinase catalytic subunit gamma isoform (Homo sapiens, UniProt P48736)", "test": "Inhibition of PI3Kgamma (unknown origin)"}, "[8]": {"biological_target": "T1, Phosphatidylinositol 3-kinase catalytic subunit type 3", "test": "Inhibition of N-terminal tagged full-length human VPS34 by luciferase-luciferin-coupled chemiluminescence assay"}, "[9]": {"biological_target": "T5, DNA-dependent protein kinase catalytic subunit (Homo sapiens, UniProt P78527)", "test": "Inhibition of human DNA-PK by luciferase-luciferin-coupled chemiluminescence assay"}, "[10]": {"biological_target": "T2, Phosphatidylinositol 4-phosphate 3-kinase C2 domain-containing subunit alpha", "test": "Inhibition of PI3KC2alpha (unknown origin) expressed in HEK293 cells using phosphatidylinositol and gamma-32P-ATP incubated for 20 mins by TLC assay or high-throughput membrane capture assay", "assay_type": "cell-based"}, "[11]": {"biological_target": "T3, Phosphatidylinositol 4-phosphate 3-kinase C2 domain-containing subunit beta", "test": "Inhibition of PI3KC2beta (unknown origin) expressed in HEK293 cells using phosphatidylinositol and gamma-32P-ATP incubated for 20 mins by TLC assay or high-throughput membrane capture assay", "assay_type": "cell-based"}, "[12]": {"biological_target": "T5, DNA-dependent protein kinase catalytic subunit", "test": "Inhibition of DNA-PK (unknown origin)"}, "[13]": {"biological_target": "T1, Phosphatidylinositol 3-kinase catalytic subunit type 3", "test": "Inhibition of human recombinant Vps34 using substrate PI incubated for 1 hr by Adapta kinase assay"}, "[14]": {"biological_target": "T2, Phosphatidylinositol 4-phosphate 3-kinase C2 domain-containing subunit alpha", "test": "Inhibition of human recombinant PI3KC2alpha using substrate PI incubated for 1 hr by Adapta kinase assay"}, "[15]": {"biological_target": "T3, Phosphatidylinositol 4-phosphate 3-kinase C2 domain-containing subunit beta", "test": "Inhibition of human recombinant PI3KC2beta using substrate PI incubated for 1 hr by Adapta kinase assay"}},
  "data": [
    {"smiles": "CC(=O)Nc1ccc2nc(-c3cccc(NS(=O)(=O)c4ccc5ccccc5c4)c3)nc(N3CCOCC3)c2c1", "values": [
      {"measurement": "IC50", "setting": "[1]", "value": "> 10", "unit": "µM"},
      {"measurement": "IC50", "setting": "[2]", "value": "> 100", "unit": "µM"}
    ]},
    {"smiles": "COc1ccc2c(c1OC)N=C(NC(=O)c1cccnc1)N1CCN=C21", "values": [
      {"measurement": "IC50", "setting": "[3]", "value": 0.83, "unit": "µM"}
    ]},
    {"smiles": "CS(=O)(=O)N1CCN(Cc2cc3nc(-c4cccc5[nH]ncc45)nc(N4CCOCC4)c3s2)CC1", "note": "[PICTILISIB]", "values": [
      {"measurement": "IC50", "setting": "[4]", "value": "> 10", "unit": "µM"}
    ]},
    {"smiles": "C[C@@H]1COCCN1c1cc(=O)n2c(n1)N(Cc1cncc(Cl)c1)[C@H](C(F)(F)F)CC2", "values": [
      {"measurement": "IC50", "setting": "[4]", "value": "> 10", "unit": "µM"},
      {"measurement": "IC50", "setting": "[5]", "value": "> 10", "unit": "µM"},
      {"measurement": "IC50", "setting": "[6]", "value": "> 10", "unit": "µM"},
      {"measurement": "IC50", "setting": "[1]", "value": "> 10", "unit": "µM"},
      {"measurement": "IC50", "setting": "[2]", "value": "> 10", "unit": "µM"}
    ]},
    {"smiles": "CC(C)(O)CNc1ncc(-c2ccnc(Nc3ccnc(Cl)c3)n2)c(CC2CC2)n1", "values": [
      {"measurement": "IC50", "setting": "[4]", "value": "> 10", "unit": "µM"},
      {"measurement": "IC50", "setting": "[5]", "value": "> 10", "unit": "µM"},
      {"measurement": "IC50", "setting": "[6]", "value": "> 10", "unit": "µM"},
      {"measurement": "IC50", "setting": "[1]", "value": "> 10", "unit": "µM"},
      {"measurement": "IC50", "setting": "[2]", "value": "> 1", "unit": "µM"}
    ]},
    {"smiles": "Nc1ncc(-c2ccnc(Nc3ccncc3)n2)c(CC2CC2)n1", "values": [
      {"measurement": "IC50", "setting": "[2]", "value": "> 9.1", "unit": "µM"},
      {"measurement": "IC50", "setting": "[7]", "value": 3, "unit": "µM"}
    ]},
    {"smiles": "COc1ccc(Cl)c(Nc2nc3ccccc3nc2NS(=O)(=O)c2cccc(NC(=O)C(C)(C)N)c2)c1", "note": "[PILARALISIB]", "values": [
      {"measurement": "IC50", "setting": "[8]", "value": 7, "unit": "µM"},
      {"measurement": "IC50", "setting": "[9]", "value": 4.8, "unit": "µM"}
    ]},
    {"smiles": "CC(=O)Nc1ccc2nc(-c3cccc(NS(=O)(=O)c4ccccc4)c3)nc(N3CCOCC3)c2c1", "values": [
      {"measurement": "IC50", "setting": "[1]", "value": "> 10", "unit": "µM"},
      {"measurement": "IC50", "setting": "[2]", "value": "> 100", "unit": "µM"}
    ]},
    {"smiles": "O=C1NC(=S)S/C1=C\\c1ccc2c(c1)N(Cc1ccc(F)c(Cl)c1)C(=O)CO2", "values": [
      {"measurement": "IC50", "setting": "[10]", "value": 0.14, "unit": "µM"},
      {"measurement": "IC50", "setting": "[11]", "value": 0.37, "unit": "µM"},
      {"measurement": "IC50", "setting": "[3]", "value": 10, "unit": "µM"},
      {"measurement": "IC50", "setting": "[12]", "value": 1.5, "unit": "µM"}
    ]},
    {"smiles": "CC(=O)Nc1nc(C)c(-c2ccc(Cl)c(S(=O)(=O)NCCO)c2)s1", "values": [
      {"measurement": "IC50", "setting": "[11]", "value": 14, "unit": "µM"},
      {"measurement": "IC50", "setting": "[3]", "value": 0.32, "unit": "µM"}
    ]},
    {"smiles": "FC(F)c1nc2ccccc2n1-c1nc(N2CCOCC2)nc(N2CCOCC2)n1", "note": "[ZSTK-474]", "values": [
      {"measurement": "IC50", "setting": "[13]", "value": "> 100", "unit": "µM"}
    ]},
    {"smiles": "Cn1c(=O)n(-c2ccc(C(C)(C)C#N)cc2)c2c3cc(-c4cnc5ccccc5c4)ccc3ncc21", "note": "[DACTOLISIB]", "values": [
      {"measurement": "IC50", "setting": "[14]", "value": 0.034, "unit": "µM"},
      {"measurement": "IC50", "setting": "[15]", "value": 0.044, "unit": "µM"},
      {"measurement": "IC50", "setting": "[13]", "value": 0.45, "unit": "µM"}
    ]}
  ]
}
